This note sets out measurements from US4855086A, “Novel pesticides, preparation and use” (Burroughs Wellcome Co., priority 1982, dated 1989).

Like-named read-outs stand apart in the source and are kept apart here.

For series [1], the system named is gamma-aminobutyric acid (GABA) release from insect synaptosomes. The series can be described thus: Release of 3H-labelled GABA from insect synaptosomes (Example H). The format is biochemical. The note with it: 1 = most potent of five compounds. The text has this:
Interference with gamma-aminobutyric acid (GABA) release from insect synaptosomes is thought to be important in the insecticidal action of the compounds of the invention. Using published procedures (E. G. Gray and V. P. Whittaker, Journal of Anatomy 96, 79-87 (1962); G. Levi, V. Gallo and M. Raiter, Neurochemical Research 5(3), 281-295 (1980)), compounds of Formula I were compared with related compounds outside the scope of the invention.
Arranged in decreasing order of potency (release of ^3 H-labelled GABA), the compounds were: […]

Series [2] has as its system female Musca domestica (WRL strain). The series can be described thus: Topical application to houseflies with and without piperonyl butoxide pretreatment (Example A). The following applies: for percent knockdown: 6 μg applied, 1 hour; for mortality at 0.006 mg: Musca domestica, topical, 24 h. On the procedure: Where pretreatment with a synergist was used, the test compound was applied 1 hour after application of the synergist (6 μg piperonyl butoxide (PB) per insect). Knockdown was assessed after 1 hour, and mortality after 24 hours.

Series [3] has as its system third instar larvae of Aedes aegypti. The series can be described thus: Exposure of mosquito larvae to aqueous suspension with piperonyl butoxide (Example D). In kind it is in vivo. The following applies: 2.5 (+12.5 pb) ppm; 18 hours. On the procedure:
Mortality was assessed after 18 hours.

The subject of series [4] is Sitophilus granarius. The format is in vivo. The note with it: 200 (+1000 pb) ppm; 6 days.
For series [5], the system named is male Blattella germanica. The series can be described thus: Exposure of cockroaches to deposit on glass with piperonyl butoxide (Example B). In kind it is in vivo. The following applies: 700 (+700 pb) mg m^-2.
Protocol: Knockdown was assessed after 10 and 60 minutes and mortality after 1 and 6 days.
Series [6] deals with Female houseflies (Musca domestica). The series can be described thus: Potentiation by other unsaturated amides in houseflies (Example G (i)). In kind it is in vivo. The following applies: 6 μg PB one hour earlier. On the procedure:
Female houseflies (Musca domestica) were treated with solutions of compounds of Formula I and a potential synergist both dissolved in butanone, the flies having been treated one hour earlier with 6 μg piperonyl butoxide (PB).
The dose required to prevent flight of half the flies 10 minutes after application of the compound (KD50) was determined and the factor of potentiation (FOP) was calculated by the Equation of the Harmonic Mean for mixtures of the compounds.

For series [7], the system named is B. microplus pyrethroid resistant strain (Malchi). The series can be described thus: Larval tick immersion test, pyrethroid resistant strain (Example F). In kind it is in vivo, Boophilus microplus. The following applies: larvae. An excerpt: (§1) Larval ticks were immersed using a published method (Shaw, R. D., Cook, M. and Carson, R. E. (1968). J. Econ. Ent. 61, 1590). Mortality data are presented for B. microplus susceptible and pyrethroid resistant strain (Malchi).

In series [8] the test system is female Aedes aegypti. The series can be described thus: Application to adult mosquitoes with piperonyl butoxide (Example E). The format is in vivo. The note with it: 2 (4 pb) μg applied.
Protocol: Knockdown was assessed after 1 hour and mortality after 24 hours.
Series [9] deals with fully engorged female Boophilus microplus, susceptible strain. The series can be described thus: Cattle tick injection test (Example F (i)). The format is in vivo. The note with it: 14 days; for No. dead / No. laying viable eggs: 10 ticks. On the procedure: The compound was supplied as a […] solution in DMSO:Acetone (1:1). Administration of the compound was by means of a microapplicator which was preset to deliver 0.2 μl of solution. The compound in solution was injected into fully engorged female Boophilus microplus, susceptible strain, at a site just lateral to the mouthparts at the rate of 10 μg/tick. Reducing the concentration reduced the dose delivered. After injection the ticks were maintained at 24° C. and 85% RH for 14 days. At this time the ticks were examined for the presence of viable eggs which gave the percent inhibition of reproduction (% IR). The number of dead ticks was also noted.

In series [10] the test system is B. microplus Susceptible. The series can be described thus: Larval tick immersion test, susceptible strain (Example F). The format is in vivo, Boophilus microplus. The following applies: larvae.
Excerpt: as §1

Series [11] concerns fully engorged female B. microplus susceptible strain. The series can be described thus: Cattle tick adult immersion test (Example F (ii), (iii)). The following applies: adults, 10 minutes immersion, 14 days. The format is in vivo, Boophilus microplus. As to the method:
The compound was supplied as a 100 mg/liter solution in Esso 200/[…]. Dilution with water gave the required concentrations. Groups of 20 fully engorged female B. microplus susceptible strain were placed in a mesh basket which was immersed in the test dilution for 10 minutes. After immersion the ticks were removed, dried and then fixed to double-sided adhesive tape which was itself affixed to white plastic boards. The boards holding the ticks were held at 24° C. and 85% RH for 14 days. Individual egg masses were scored from 0-4 for quality and quantity and the total score for each group was obtained. The scores were corrected for water control oviposition, plotted on log-probit paper and the % concentration inhibiting 50% and 99% of viable oviposition determined.

Series [12] relates to houseflies. The series can be described thus: Potentiation by pyrethroids, spray chamber, S-bioallethrin (Example G (ii)). The format is in vivo, housefly (Musca domestica). The note with it: mixture ratio 45:1. The text has this: Solutions of the compounds were sprayed into a chamber and houseflies released into the chamber.
Setting [13] is: 6 μg PB pretreatment 1 hour before.
Setting [14] is: read-out: percent mortality, 6 μg applied, 6 μg PB pretreatment 1 hour before, 24 hours.
[15] abbreviates: read-out: percent mortality, 6 μg applied, synergist: none, 24 hours.

In the case of `CC(C)CNC(=O)/C=C/CC/C=C\C=C\c1cccc(C(F)(F)F)c1`, the “rank in decreasing order of potency (release of ^3 H-labelled GABA)” value (“rank in decreasing order of potency” for short) in series [1] came to 4.

In the case of `CC(C)CNC(=O)/C=C/CC/C=C\c1ccccc1` [Example 3, N-isobutyl-7-phenylhepta-2E,6Z-dienamide], the percent knockdown in series [2] (setting [13]) amounted to 90%. Besides, the percent knockdown in series [2] (synergist: none) was determined as 5%. Further, in series [2] (setting [14]), the mortality at 0.006 mg was 95%. For the same compound, in series [2] (setting [15]), the mortality at 0.006 mg was 2.5%. In series [3], the “% mortality” value is recorded as 100%. Moreover, in series [4], the “% mortality” value is recorded as 100%. Besides, in [5], the “% knockdown 10 mins” value is listed as 13%, the “% knockdown 60 mins” value is 20%, the “% mortality 1 day” value came to 20% and the “% mortality 6 days” value was determined as 20%.

On to `CC(C)CNC(=O)/C=C/CC/C=C\C=C\c1ccccc1` [Example 9, N-isobutyl-9-phenyl-nona-2 (E),6(Z),8(E)-trienamide], for which the “KD50 (dose required to prevent flight of half the flies 10 minutes after application)” value (from here on “KD50”) in [6] amounted to 8.4 μg/fly. Further, the LC50 in series [7] was 0.00022%; in [10], 0.00044%; in series [11], 0.1%. The results for the percent knockdown in [2] (setting [13]) and in series [2] (synergist: none) were 100% and 95%, respectively. For the same compound, the mortality at 0.006 mg in [2] (setting [14]) was 100%; in series [2] (setting [15]), 0%. In addition, the “% knockdown” value in series [8] (1 hour) stood at 70%. For the same compound, the “% mortality” value amounted to 80% in [8] (24 hours), 100% in series [3] and 100% in series [4]. The No. dead was determined as 0 in series [9] (1 μg injected), 1 in series [9] (5 μg injected) and 3 in series [9] (10 μg injected). For the same compound, the results for the “No. laying viable eggs” value in series [9] (1 μg injected), in series [9] (5 μg injected) and in [9] (10 μg injected) were 8, 3 and 1, respectively. In addition, the “% IR (percent inhibition of reproduction)” value worked out at 20% in series [9] (1 μg injected), 70% in [9] (5 μg injected) and 90% in [9] (10 μg injected). Moreover, in [9] (Rhipicephalus microplus, 336 h, 1 μg injected, read-out: % Kill), the mortality at 0.001 mg was found to be 0%. In [9] (Rhipicephalus microplus, 336 h, 5 μg injected, read-out: % Kill), the mortality at 0.005 mg worked out at 10%. Further, the mortality at 0.01 mg in series [9] (Rhipicephalus microplus, 336 h, 10 μg injected, read-out: % Kill) was 30%. The “IR50 (% concentration inhibiting 50% of viable oviposition)” value in series [11] is 0.026%. Also, the “IR99 (% concentration inhibiting 99% of viable oviposition)” value in series [11] stood at 0.1%. Also, in series [5], the “% knockdown 10 mins” value turned out to be 7%. Besides, the “% knockdown 60 mins” value in series [5] is given as 7%. Besides, the “% mortality 1 day” value in [5] is recorded as 33%. In addition, in series [5], the “% mortality 6 days” value worked out at 40%. The “LC50 (concentration for death of half the flies)” value in series [12] was found to be 1.8%. For the same compound, the “rank in decreasing order of potency” value in series [1] is given as 3.

As to `CC(C)CNC(=O)/C=C/C=C/CC/C=C\C=C\c1cccc(C(F)(F)F)c1` [Example 10, N-isobutyl-11-(3'-trifluoromethylphenyl)-(2E,4E,8Z,10E)-undecatetrenamide], the “KD50” value in series [6] was found to be 5.6 μg/fly. The “rank in decreasing order of potency” value in [1] came to 1.

For `CCCCC/C=C/C=C/C(=O)NCC(C)C` [N--isobutyl-(2E,4E)-decadienamide, reference compound], the “KD50” value in [6] turned out to be 77 μg/fly.

In the case of `CCCCOCCOCCOCc1cc2c(cc1CCC)OCO2` [PB, piperonyl butoxide, reference compound], the mortality at 0.006 mg in [2] stood at 0%. The knockdown in series [2] (PB alone, 6 μg per fly) is 0%.

Consider `C=CCC1=C(C)[C@@H](OC(=O)[C@@H]2[C@@H](C=C(C)C)C2(C)C)CC1=O` [S-bioallethrin, reference compound], for which the “LC50 (concentration for death of half the flies)” value in series [12] came to 0.05%.

On to `CC(C)CNC(=O)/C=C/C=C/CC/C=C\C=C\c1ccc2c(c1)OCO2` [reference compound], for which the “rank in decreasing order of potency” value in series [1] was 2.

Turning to `CC(C)CNC(=O)/C=C/CC/C=C\C=C\c1ccc2c(c1)OCO2` [reference compound], the “rank in decreasing order of potency” value in series [1] was 5.
